Assay results as given in ChEMBL document CHEMBL1649252, “Plasmodium falciparum drug resistance in Madagascar: facing the spread of unusual pfdhfr and pfmdr-1 haplotypes and the decrease of dihydroartemisinin susceptibility” (Antimicrob Agents Chemother, 2009).

Tests used:
Plasmodium falciparum [1] = assay: Antimalarial activity against Plasmodium falciparum assessed as resistant isolates; format: functional
Plasmodium falciparum [2] = assay: Antimalarial activity against Plasmodium falciparum assessed as parasite growth inhibition after 48 hrs by [3H]hypoxanthin incorporation assay; format: functional, organism-based

## C[C@H]1[C@@H](O)O[C@@H]2O[C@@]3(C)CC[C@H]4[C@H](C)CC[C@@H]1[C@@]24OO3 [ARTENIMOL]
Plasmodium falciparum [1]
  Activity: 0%
Plasmodium falciparum [2]
  IC50: 0.95 nM

## CCN(CC)CCCC(C)Nc1ccnc2cc(Cl)ccc12 (centres undefined) [CHLOROQUINE]
Plasmodium falciparum [1]
  Activity: 3.2%

## CCNCc1cc(Nc2ccnc3cc(Cl)ccc23)ccc1O [DESETHYL AMODIAQUINE]
Plasmodium falciparum [1]
  Activity: 0.5%
Plasmodium falciparum [2]
  IC50: 8.3 nM

## OC(c1cc(C(F)(F)F)nc2c(C(F)(F)F)cccc12)C1CCCCN1 (centres undefined) [MEFLOQUINE]
Plasmodium falciparum [1]
  Activity: 0.4%
Plasmodium falciparum [2]
  IC50: 6.7 nM

## C=C[C@H]1CN2CC[C@H]1C[C@H]2[C@H](O)c1ccnc2ccc(OC)cc12 [QUININE]
Plasmodium falciparum [1]
  Activity: 0%
Plasmodium falciparum [2]
  IC50: 53.7 nM
